Columns and labels:
Format in all cases: in vivo, human
[1] = tested on: patients with migraine headache disorder; test: intranasal capsaicin cream for acute migraine pain, two patients; details: 0.025% by weight capsaicin cream intranasally, both of two migraine patients
Protocol: Two patients with migraine headache disorder were administered 0.025% by weight capsaicin cream intranasally for acute relief of their migraine pain. Both reported increased lacrimation within 30 minutes of application of the capsaicin cream.

[2] = tested on: patients with migraine headache; test: capsaicin cream applied to nasal mucosa in migraine headache; details: 0.025% by weight capsaicin cream to nasal mucosa
[3] = tested on: patients with episodic cluster headache; test: civamide nasal drops in episodic cluster headache; details: 0.025% by weight civamide nasal drops once daily for 1 week, 9 of 18 patients
Description: In a study utilizing 0.025% by weight civamide nasal drops administered once daily for 1 week to 28 patients with episodic cluster headache (a severe form of vasomotor headache that occurs in general 4-24 week clusters), 9 of 18 patients (50%) on civamide nasal drops had increased tearing versus 0 of 10 patients (0%) on vehicle control.

[4] = tested on: episodic cluster headache patients; test: civamide nasal spray versus inactive control in episodic cluster headache; details: 0.01% by weight civamide nasal spray twice daily, 36 patients
normal volunteers = test: multi-dose 14 day tolerance study of civamide nasal spray; details: 14 days, 10 normal volunteers
[5] = tested on: patients with vasomotor rhinitis (non-allergic rhinitis); test: double-blind placebo-controlled 2 week evaluation of civamide nasal spray in vasomotor rhinitis; details: 0.01% by weight civamide nasal spray, 2 weeks
Description: Fifty-five (55) patients with vasomotor rhinitis (non-allergic rhinitis) participated in a double-blind placebo-controlled 2 week evaluation of the symptomatic relief afforded patients by 0.01% by weight civamide nasal spray or placebo nasal spray (vehicle for active product). Thirty-one percent (31%) of patients using 0.01% civamide spray reported increased tearing, while 0% of patients on placebo noted such a side effect.

SMILES | time to reported increased lacrimation after application [1] | patients who reported increased tearing as a side effect [2] | patients who noted some relief of their headaches ([2]; 4 hours after administration) | patients who had increased tearing [3] | patients who reported increased tearing [4] | subjects who experienced increased lacrimation (tear production) (normal volunteers; 0.0075% by weight civamide nasal spray twice daily) | subjects who experienced increased lacrimation (tear production) (normal volunteers; 0.01% by weight civamide nasal spray twice daily) | subjects who experienced increased tearing (normal volunteers; […] by weight civamide nasal spray once daily) | patients who reported increased tearing [5]
COc1cc(CNC(=O)CCCC/C=C/C(C)C)ccc1O [capsaicin] | ≤ 30 min | 44% | 73% |  |  |  |  |  | 
COc1cc(CNC(=O)CCCC/C=C\C(C)C)ccc1O [civamide, cis-8-methyl-N-vanillyle-nonenamide] |  |  |  | 50% | 51% | 100% | 100% | 90% | 31%

— patent US20090093446A1, “METHOD FOR ALLEVIATING KERATOCONJUNCTIVITIS SICCA” (priority 2007, published 2009)
